Measured values as given in patent publication US9458135B2, “Dihydroquinoline-2-one derivatives” (Hoffmann-La Roche Inc., priority 2014, dated 2016).

Columns and labels:
human CYP11B1 = human CYP11B1 (Homo sapiens (Human), UniProt P15538); experiment: G-402 cellular enzyme assay, human CYP11B1 (cortisol release, HTRF); format: cell-based; conditions: G-402 cells expressing human CYP11B1; 1 μM Deoxycortisol
Description: (§1) Herein we identified the use of the G-402 cell line as a host cell to ectopically express (transiently or stably) enzymes of the CYP11 family. Specifically we developed stable G-402 cells expressing ectopically human CYP11B1, human CYP11B2, human CYP11A1, cynmolgus CYP11B1 or cynomolgus CYP11B2 enzyme activity. Importantly the identified cell line G-402 expresses co-factors (adrenodoxin and adrenodoxin reductase) important for the activity of the CYP11 family and no relevant enzyme activity of the CYP11 family (in comparison to H295R cells) was detected in these cells. Therefore the G-402 cell line is uniquely suited as a host cell for the ectopic expression of enzymes from the CYP11 family.
(§2) The expression plasmids contains the ORF for either huma/cyno CYP11B1 or CYP11B2 under the control of a suitable promoter (CMV-promoter) and a suitable resistance marker (neomycin). Using standard techniques the expression plasmid is transfected into G-402 cells and these cells are then selected for expressing the given resistance markers. Individual cell-clones are then selected and assessed for displaying the desired enzymatic activity using 11-Deoxycorticosterone (Cyp11B2) or 11-Deoxycortisol (Cyp11B1) as a substrate.
(§3) G-402 cells expressing CYP11 constructs were established as described above and maintained in McCoy's 5a Medium Modified, ATCC Catalog No. 30-2007 containing 10% FCS and 400 μg/ml G418 (Geneticin) at 37° C. under an atmosphere of 5% CO2/95% air. Cellular enzyme assays were performed in DMEM/F12 medium containing 2.5% charcoal treated FCS and appropriate concentration of substrate (0.3-10 uM 11-Deoxycorticosterone, 11-Deoxycortisol or Corticosterone). For assaying enzymatic activity, cells were plated onto 96 well plates and incubated for 16 h. An aliquot of the supernatant is then transferred and analyzed for the concentration of the expected product (Aldosterone for CYP11B2; Cortisol for CYP11B1). The concentrations of these steroids can be determined using HTRF assays from CisBio analyzing either Aldosterone or Cortisol.
(§4) Inhibition of the release of produced steroids can be used as a measure of the respective enzyme inhibition by test compounds added during the cellular enzyme assay. The dose dependent inhibition of enzymatic activity by a compound is calculated by means of plotting added inhibitor concentrations (x-axes) vs. measured steroid/product level (y-axes). The inhibition is then calculated by fitting the following 4-parameter sigmoidal function (Morgan-Mercer-Flodin (MMF) model) to the raw data points using the least squares method:
(§5) [formula] wherein, A is the maximum y value, B is the EC50 factor determined using XLFit, C is the minimum y value and D is the slope value.
(§6) EC50 values for compounds claimed herein were tested with the G402-based assay system described. Cyp11B2 enzyme activity was tested in presence of 1 μM Deoxycorticosterone and variable amounts of inhibitors; Cyp11B1 enzyme activity was tested in presence of 1 μM Deoxycortisol and variable amounts of inhibitors.

human CYP11B2 = human CYP11B2 (Homo sapiens (Human), UniProt P19099); experiment: G-402 cellular enzyme assay, human CYP11B2 (aldosterone release, HTRF); format: cell-based; conditions: G-402 cells expressing human CYP11B2; 1 μM Deoxycorticosterone
Sequence of human CYP11B2 (P19099 25-503): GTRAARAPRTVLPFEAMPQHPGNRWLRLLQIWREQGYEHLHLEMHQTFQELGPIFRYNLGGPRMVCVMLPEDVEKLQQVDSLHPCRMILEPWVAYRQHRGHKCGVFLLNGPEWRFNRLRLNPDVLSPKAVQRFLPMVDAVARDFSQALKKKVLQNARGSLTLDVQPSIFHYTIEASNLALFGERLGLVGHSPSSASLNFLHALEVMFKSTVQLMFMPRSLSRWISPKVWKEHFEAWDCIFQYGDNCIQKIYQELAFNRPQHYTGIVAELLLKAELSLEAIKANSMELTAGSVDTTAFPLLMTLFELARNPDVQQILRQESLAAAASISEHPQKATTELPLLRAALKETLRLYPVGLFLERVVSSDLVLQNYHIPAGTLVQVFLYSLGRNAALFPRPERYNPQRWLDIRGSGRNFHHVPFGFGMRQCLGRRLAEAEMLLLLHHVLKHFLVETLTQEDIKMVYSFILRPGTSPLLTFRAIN
Description: as §1, §2, §3, §4, §5, §6

Sequence of human CYP11B1 (P15538 25-503): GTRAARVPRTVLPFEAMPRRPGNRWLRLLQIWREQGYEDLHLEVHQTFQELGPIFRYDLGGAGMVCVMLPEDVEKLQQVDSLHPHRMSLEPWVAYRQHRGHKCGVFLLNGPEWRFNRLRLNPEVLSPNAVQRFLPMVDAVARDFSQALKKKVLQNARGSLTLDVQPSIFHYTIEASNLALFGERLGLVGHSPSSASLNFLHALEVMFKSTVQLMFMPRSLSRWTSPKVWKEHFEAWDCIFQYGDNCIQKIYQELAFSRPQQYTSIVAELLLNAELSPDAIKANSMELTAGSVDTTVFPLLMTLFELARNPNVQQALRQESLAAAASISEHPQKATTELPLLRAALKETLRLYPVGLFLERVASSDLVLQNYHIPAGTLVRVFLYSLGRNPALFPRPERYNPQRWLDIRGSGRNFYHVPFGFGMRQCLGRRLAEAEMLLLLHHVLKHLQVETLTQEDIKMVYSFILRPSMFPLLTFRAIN

EC50 (human CYP11B1) | EC50 (human CYP11B2) | Structure (SMILES)
7.5 nM | 0.3 nM | CN1C(=O)CCc2cc(-c3cncc(COc4cccc(F)n4)c3)ccc21 [Example 18, 6-[5-(6-Fluoro-pyridin-2-yloxymethyl)-pyridin-3-yl]-1-methyl-3,4-dihydro-1H-quinolin-2-one]
1.7 nM | 0.1 nM | Cc1ccnc(OCc2cncc(-c3ccc4c(c3)CCC(=O)N4C)c2)c1 [Example 5, 1-Methyl-6-[5-(4-methyl-pyridin-2-yloxymethyl)-pyridin-3-yl]-3,4-dihydro-1H-quinolin-2-one]
12.3 nM | 0.3 nM | CN1C(=O)CCc2cc(-c3cncc(COc4ccnc(C(F)(F)F)n4)c3)ccc21 [Example 10, 1-Methyl-6-[5-(2-trifluoromethyl-pyrimidin-4-yloxymethyl)-pyridin-3-yl]-3,4-dihydro-1H-quinolin-2-one]
8.7 nM | 0.2 nM | CN1C(=O)CCc2cc(-c3cncc(COc4ccccn4)c3)ccc21 [Example 7, 1-Methyl-6-[5-(pyridin-2-yloxymethyl)-pyridin-3-yl]-3,4-dihydro-1H-quinolin-2-one]
0.9 nM | 0.2 nM | CN1C(=O)CCc2cc(-c3cncc(COc4cc(C#N)ccn4)c3)ccc21 [Example 17, 2-[5-(1-Methyl-2-oxo-1,2,3,4-tetrahydro-quinolin-6-yl)-pyridin-3-ylmethoxy]-isonicotinonitrile]
0.1 nM | 0.012 nM | Cc1cccc(SCc2cncc(-c3ccc4c(c3)CCC(=O)N4C)c2)n1 [Example 14, 1-Methyl-6-[5-(6-methyl-pyridin-2-ylsulfanylmethyl)-pyridin-3-yl]-3,4-dihydro-1H-quinolin-2-one]

Further lines, the molecule ahead of its results:

Structure (SMILES) | EC50 (human CYP11B1) | EC50 (human CYP11B2)
Cc1cccc(OCc2cncc(-c3cc4c(cc3F)N(C)C(=O)CC4)c2C)n1 [Example 24, 7-Fluoro-1-methyl-6-[4-methyl-5-(6-methyl-pyridin-2-yloxymethyl)-pyridin-3-yl]-3,4-dihydro-1H-quinolin-2-one] | 105 nM | 0.7 nM
CN1C(=O)CCc2cc(-c3cncc(COc4cnc(Cl)nc4)c3)ccc21 [Example 11, 6-[5-(2-Chloro-pyrimidin-5-yloxymethyl)-pyridin-3-yl]-1-methyl-3,4-dihydro-1H-quinolin-2-one] | 0.8 nM | 0.1 nM
Cc1cc(OCc2cncc(-c3ccc4c(c3)CCC(=O)N4C)c2)nc(C(F)(F)F)c1 [Example 4, 1-Methyl-6-[5-(4-methyl-6-trifluoromethyl-pyridin-2-yloxymethyl)-pyridin-3-yl]-3,4-dihydro-1H-quinolin-2-one] | 3.6 nM | 0.4 nM
Cc1c(COc2ncccc2F)cncc1-c1cc2c(cc1F)N(C)C(=O)CC2 [Example 26, 7-Fluoro-6-[5-(3-fluoro-pyridin-2-yloxymethyl)-4-methyl-pyridin-3-yl]-1-methyl-3,4-dihydro-1H-quinolin-2-one] | 866 nM | 5 nM
Cc1ccnc(OCc2cncc(-c3cc4c(cc3F)N(C)C(=O)CC4)c2)c1 [Example 23, 7-Fluoro-1-methyl-6-[5-(4-methyl-pyridin-2-yloxymethyl)-pyridin-3-yl]-3,4-dihydro-1H-quinolin-2-one] | 4.1 nM | 0.1 nM
Cc1c(COc2cccc(Cl)n2)cncc1-c1cc2c(cc1F)N(C)C(=O)CC2 [Example 25, 6-[5-(6-Chloro-pyridin-2-yloxymethyl)-4-methyl-pyridin-3-yl]-7-fluoro-1-methyl-3,4-dihydro-1H-quinolin-2-one] | 116 nM | 1.3 nM
Cc1c(COc2cccc(F)n2)cncc1-c1cc2c(cc1F)N(C)C(=O)CC2 [Example 27, 7-Fluoro-6-[5-(6-fluoro-pyridin-2-yloxymethyl)-4-methyl-pyridin-3-yl]-1-methyl-3,4-dihydro-1H-quinolin-2-one] | 20.8 nM | 0.2 nM
CN1C(=O)CCc2cc(-c3cncc(CC(=O)Nc4cccc(Cl)c4)c3)ccc21 [Example 29, N-(3-Chloro-phenyl)-2-[5-(1-methyl-2-oxo-1,2,3,4-tetrahydro-quinolin-6-yl)-pyridin-3-yl]-acetamide] | 307 nM | 12.7 nM
